Experimental data: the PolyMetriX glass transition set
± gives the standard deviation of the reports.

SMILES	glass transition temperature [°C]
*CCC[Si](*)(C)O[Si](C)(C)CCCOc1ccc(C(=O)Oc2ccc(-c3ccc(C#N)cc3)cc2)cc1 (repeat unit)	10.10
*/C=C/c1cccc(/C=C/[Si](C)(CCC(F)(F)F)c2ccc([Si](*)(C)CCC(F)(F)F)cc2)c1 (repeat unit)	34.50
*CCN(CCOC(=O)Nc1ccc(C)c(NC(=O)O*)c1)c1ccc(-c2nc3ccc([N+](=O)[O-])cc3o2)cc1 (repeat unit)	156.00
*CCCCCCCCCNC(=O)N* (repeat unit)	130.00
*OC(COC(*)=O)COC(C)(C)C (repeat unit)	18.00
*c1ccc(Oc2ccc(Oc3ccc(N4C(=O)c5ccc(Oc6ccccc6Oc6ccc7c(c6)C(=O)N(*)C7=O)cc5C4=O)cc3C(F)(F)F)cc2)c(C(F)(F)F)c1 (repeat unit)	197.00
*CC(C)C(=O)O* (repeat unit)	-25.00
*c1ccc(N2C(=O)c3ccc(Oc4ccc(Oc5ccc(P(=O)(c6ccccc6)c6ccc(Oc7ccc(Oc8ccc9c(c8)C(=O)N(*)C9=O)cc7)cc6)cc5)cc4)cc3C2=O)cc1 (repeat unit)	220.00
*c1cccc(N/C=C/C(=O)c2cccc(C(=O)/C=C/Nc3cccc(S(*)(=O)=O)c3)c2)c1 (repeat unit)	215.00
*CC(*)c1ccccc1C(=O)Nc1ccccc1 (repeat unit)	191.00
*CC(*)(CC(=O)OCCOCCOCCOCCOCCOCCOCCOC)C(=O)OCCOCCOCCOCCOCCOCCOCCOC (repeat unit)	-40.50
*CC(CC)(CC)CO* (repeat unit)	-30.00
*CC(*)O (repeat unit) [Poly(vinyl alcohol)]	79.67 ± 32
*OC(=O)C(C)NC(=O)CCCCCCCCC(=O)NC(C)C(=O)OC1COC2C(*)COC12 (repeat unit)	57.00
*CC(*)(C)C(=O)O[Si](C)(C)C (repeat unit)	97.50
*C(=O)c1ccc(C(=O)N(*)c2ccccc2)c(Sc2ccccc2)c1 (repeat unit)	152.00
*Oc1ccc(CC(NC(=O)Cc2ccc(OC(=O)CCCCC(*)=O)cc2)C(=O)OCCCCCC)cc1 (repeat unit)	36.00
*CC(*)(C)C(=O)OCCCCc1ccccc1 (repeat unit)	9.00
*c1cccc(OCCCCCCCCCCCOC(=O)c2ccc(C(=O)OCCCCCCCCCCCOc3cccc(-c4nnc(*)s4)c3)cc2)c1 (repeat unit)	22.00
*CCCCCCCOC(=O)c1ccc(C(=O)O*)cc1 (repeat unit)	-1.00
*CC(COC(=O)O*)OCCCCOc1ccc(/C=C/c2ccc([N+](=O)[O-])cc2)cc1 (repeat unit)	42.00
*CC(*)(C)C(=O)OCC1COC(=O)O1 (repeat unit)	124.00

SMILES	glass transition temperature [°C]
*CC(OCC(C)C)C(C)(C(=O)OC)C(*)(C)C(=O)OC (repeat unit)	125.50
*Oc1ccc(CC(NC(=O)CCc2ccc(OC(=O)COCCOCC(*)=O)cc2)C(=O)OCCCCCC)cc1 (repeat unit)	28.00
*CCCCNC(=O)c1cccc(C(=O)N*)c1 (repeat unit)	141.00
*CCCCCCCCCCCCOC(=O)NCc1ccc(CNC(=O)O*)cc1 (repeat unit)	45.00
*O[Si](C)(C)c1ccc([Si](*)(C)C)c2ccccc12 (repeat unit)	60.00
*CC/C=C(/*)Cl (repeat unit) [Polychloroprene ]	-48 ± 18
*OC(COC(=O)c1cc(C(*)=O)cc(C(C)(C)C)c1)COc1ccc(/N=N/c2ccc(C#N)cc2)cc1 (repeat unit)	137.00
*CCCCCCCCCCN1C(=O)c2ccc(C(c3ccc4c(c3)C(=O)N(*)C4=O)(C(F)(F)F)C(F)(F)F)cc2C1=O (repeat unit)	123.00
*c1c(C)cc(C)c(N2C(=O)c3cccc(Oc4c(C)cc(-c5cc(C)c(Oc6cccc7c6C(=O)N(*)C7=O)c(C)c5)cc4C)c3C2=O)c1C (repeat unit)	325.00
*CCCCCC(*)CCCCCCCC (repeat unit)	-72.00
*CC(*)Cc1ccc(C)cc1 (repeat unit)	65.00
*CCN1C(=O)c2ccc(C(c3ccc4c(c3)C(=O)N(*)C4=O)(C(F)(F)F)C(F)(F)F)cc2C1=O (repeat unit)	180.00
*CCCCCCCCCN1C(=O)c2ccc(C(c3ccc4c(c3)C(=O)N(*)C4=O)(C(F)(F)F)C(F)(F)F)cc2C1=O (repeat unit)	135.00
*c1cc(-c2ccc(C(=C3C=C(C(C)(C)C)C(=O)C(C(C)(C)C)=C3)c3cc(C(C)(C)C)c(O)c(C(C)(C)C)c3)cc2)c(*)s1 (repeat unit)	-12.60
*Oc1ccc2c(c1)C1(CC2(C)C)CC(C)(C)c2ccc(OC(*)=O)cc21 (repeat unit)	228.00
*CCCCCC(*)CCCC (repeat unit)	-69.00
*/C=C/C1CC(*)C2C(=O)N(CCCCCC)C(=O)C12 (repeat unit)	87.00
*OC(=O)Cc1ccc(CC(*)=O)cc1 (repeat unit)	65.00
*/C=C/c1ccc(*)c(-c2ccc(OCC(CC)CCCC)c3ccccc23)c1 (repeat unit)	135.00
*c1ccc2c(c1)C(=O)N(c1ccc(Cc3ccc(N4C(=O)c5ccc(C(*)(C(F)(F)F)C(F)(F)F)cc5C4=O)c(C(C)(C)C)c3)cc1C(C)(C)C)C2=O (repeat unit)	274.00
*c1ccc(-c2sc(-c3cc(SCCCC)c(*)s3)cc2SCCCC)cc1 (repeat unit)	129.00

The remaining lines, values ahead:

glass transition temperature [°C]	SMILES
55.00	*Oc1ccc(CC(NC(=O)CCc2ccc(OC(=O)CCC(C)CC(*)=O)cc2)C(=O)OCc2ccccc2)cc1 (repeat unit)
87.00	*CCCCCCOC(=O)Nc1ccc(C)c(NC(=O)OCCCCCCOc2ccc(-c3ccc(O*)cc3)cc2)c1 (repeat unit)
232.50	*Oc1ccc(S(=O)(=O)c2ccc(Oc3ccc(NC(=O)c4cc(C(=O)Nc5ccc(*)cc5)cc(C(C)(C)C)c4)cc3)cc2)cc1 (repeat unit)
135.00	*Nc1c(-c2ccccc2)cc(-c2ccc(-c3cc(-c4ccccc4)c(NC(=O)c4ccc(C(*)=O)cc4)c(-c4ccccc4)c3)cc2)cc1-c1ccccc1 (repeat unit)
219.00	*c1ccc(Oc2cccc(Oc3ccc(N4C(=O)c5ccc(Oc6ccc(S(=O)(=O)c7ccc(Oc8ccc9c(c8)C(=O)N(*)C9=O)cc7)cc6)cc5C4=O)cc3)c2)cc1 (repeat unit)
380.00	*Oc1ccc(C(C)(C)c2ccc(Oc3ccc4c(=O)n5c6cc(-c7ccc8c(c7)nc7c9ccc(*)c%10cccc(c(=O)n87)c%109)ccc6nc5c5cccc3c45)cc2)cc1 (repeat unit)
202.00	*Oc1ccc(S(=O)(=O)c2ccc(Oc3ccc(C(C)(C)c4ccc(*)cc4)cc3)cc2)c(N)c1 (repeat unit)
227.50	*c1cccc(N2C(=O)c3cccc(Oc4ccc(C(C)(C)c5ccc(Oc6cccc7c6C(=O)N(*)C7=O)cc5)cc4)c3C2=O)c1 (repeat unit)
89.00	*Oc1ccc(C(c2ccc(OC(=O)c3ccc(OCCCCCCCCCCOc4ccc(C(*)=O)cc4)cc3)cc2)(C(F)(F)F)C(F)(F)F)cc1 (repeat unit)
180.50	*Oc1ccc(C(C)(C)C)cc1Oc1ccc(S(=O)(=O)c2ccc(*)cc2)cc1 (repeat unit)
252.00	*C(=O)c1ccc2c(c1)C(=O)N(c1ccc(-c3ccc(Oc4ccc(C5(C)CC(C)(C)c6ccc(Oc7ccc(-c8ccc(N9C(=O)c%10ccc(*)cc%10C9=O)cc8)cc7C(F)(F)F)cc65)cc4)c(C(F)(F)F)c3)cc1)C2=O (repeat unit)
213.00	*c1cccc(Oc2cccc(Oc3cccc(N4C(=O)c5ccc(-c6cccc7c6C(=O)N(*)C7=O)cc5C4=O)c3)c2)c1 (repeat unit)
271.00	*C(=O)c1ccc2nc(-c3ccccc3)c(-c3ccc(Oc4ccc(-c5nc6cc(*)ccc6nc5-c5ccccc5)cc4)cc3)nc2c1 (repeat unit)
285.00	*c1ccc(Oc2ccc3ccccc3c2-c2c(Oc3ccc(N4C(=O)c5ccc(NC(=O)Nc6ccc(Oc7ccccc7-c7ccccc7Oc7ccc(NC(=O)Nc8ccc9c(c8)C(=O)N(*)C9=O)cc7)cc6)cc5C4=O)cc3)ccc3ccccc23)cc1 (repeat unit)
217.00	*C(=O)c1ccc(Oc2ccc(C(C)(C)c3ccc(Oc4ccc(C(=O)c5ccc6c(c5)C(=O)N(c5ccc(Oc7ccc(N8C(=O)c9ccc(*)cc9C8=O)cc7)cc5)C6=O)cc4)cc3)cc2)cc1 (repeat unit)
210.00	*c1ccc(Oc2ccc(S(=O)(=O)c3ccc(Oc4ccc(-c5ncc(*)o5)cc4C(F)(F)F)cc3)cc2)c(C(F)(F)F)c1 (repeat unit)
224.00	*c1ccc2c(c1)C(=O)N(c1cccc(Oc3ccc(C(c4ccc(Oc5cccc(N6C(=O)c7ccc(C(*)(C(F)(F)F)C(F)(F)F)cc7C6=O)c5)cc4)(C(F)(F)F)C(F)(F)F)cc3)c1)C2=O (repeat unit)
280.00	*Oc1ccc(NC(=C(C#N)C#N)c2ccc3cc(C(Nc4ccc(*)cc4)=C(C#N)C#N)ccc3c2)cc1 (repeat unit)
315.00	*C(=O)Nc1ccc(-c2ccc(NC(=O)c3ccc4c(c3)C(=O)N(c3ccc(Oc5ccc(N6C(=O)c7ccc(*)cc7C6=O)cc5)cc3)C4=O)cc2)cc1 (repeat unit)
187.00	*Oc1ccc(C(=O)c2ccc(NC(=O)c3ccc(C(=O)Nc4ccc(C(=O)c5ccc(*)cc5)cc4)cc3)cc2)cc1 (repeat unit)
284.00	*Nc1ccc(C2(c3ccc(NC(=O)c4cc(C(*)=O)cc(C(C)(C)C)c4)cc3)c3ccccc3-c3ccccc32)cc1 (repeat unit)
64.00	*c1ccc(OCCCCCCCCCCCOC(=O)c2ccc(C(=O)OCCCCCCCCCCCOc3ccc(-c4nnc(*)s4)cc3)cc2)cc1 (repeat unit)
